According to patent US7550629B2, “Trifluoromethyl-containing phenylsulfonamide beta amyloid inhibitors” (Wyeth, priority 2006, dated 2009):

How the values were obtained:
beta amyloid 40 = experiment: Aβ40/42 ELISA Assay: Aβ40; format: cell-based; settings: Cricetulus griseus; CHO cells carrying the APP-REP-NL plasmid, 22 hours, sandwich ELISA of medium
Method: (§1) Pharmacology: Aβ40/42 ELISA Assay
(§2) Compounds are diluted from DMSO stocks to 2 μM and below in a cell culture medium. Compounds are then applied to CHO cells carrying the APP-REP-NL plasmid [Sudhir et. al, J. Biol. Chem. 267:25602-25608 (1992)] for a period of 22 hours. After the conditioning period, medium is collected, diluted in assay buffer containing protein, and samples, controls, and synthetic peptide standards are incubated on a prepared ELISA plate. Using a sandwich ELISA with antibodies specifically directed against the carboxyl terminus of beta amyloid 40 or 42 [analogous to the method reported by Haugabook et al., J. Neurosci. Methods 108:171-179 (2001) but using goat anti-mouse IgGl (source: Southern Biotech) as the anchor, 6E10 as the capture antibody (Source: SENETEK), rabbit antiαβ40 and antiαβB42 (source: QCB) and APL-donkey anti-rabbit IgG (H+L, source: Southern Biotech) as the detection antibody], the effect of the compound treatment on the cellular production of extracellular beta amyloid is quantified. Cells treated with compound are subsequently incubated in cell culture medium containing […]. After a short incubation period, MTS/medium containing plates are read in a spectrophotometer to determine the extent to which compound toxicity affected the cell's metabolism and ability to synthesize beta amyloid.
(§3) Test Samples: compound samples are supplied as 20 mM stock solutions in a 100% DMSO solution.
(§4) APP-REP-NL cells: Qualified cell lines are carried from week to week using 1:100 dilutions and are cultured in DMEM supplemented with 1× antibiotic/antimycotic, 200 μg/ml of G418 antibiotic, and 10% certified fetal calf serum. Cells are also banked in liquid nitrogen. Periodically, beta amyloid production is assessed, and cells are either kept in culture or replaced with progenitors at full expression.
(§5) Antibodies: Are from certified lots that have already been qualified in this assay. Antibodies are stored in small frozen aliquots at −80° C. that are thawed and used.
(§6) A compound is considered active if it has an EC50 for Aβ 40 reduction of <100 μM and no toxicity at doses in the vicinity the EC50.

beta amyloid 42 = experiment: Aβ40/42 ELISA Assay: Aβ42; format: cell-based; settings: Cricetulus griseus; CHO cells carrying the APP-REP-NL plasmid, 22 hours, sandwich ELISA of medium
Method: as §1, §2, §3, §4, §5, §6

Structure (SMILES)	EC50 (beta amyloid 40) [µM]	EC50 (beta amyloid 42) [µM]
CC(=O)c1cccc(S(=O)(=O)NC(CO)C(C(F)(F)F)C(F)(F)F)c1 (centres unmarked) [Example 6, 3-Acetyl-N-(3,3,3-trifluoro-1-hydroxymethyl-2-trifluoromethyl-propyl)-benzenesulfonamide]	13.4	11.2
COc1cccc(S(=O)(=O)NC(CO)C(C(F)(F)F)C(F)(F)F)c1 (centres unmarked) [Example 12, 3-methoxy-N-[3,3,3-trifluoro-1-(hydroxymethyl)-2-(trifluoromethyl)propyl]benzenesulfonamide]	24.1	
O=S(=O)(NC(CO)C(C(F)(F)F)C(F)(F)F)c1cccc(Br)c1 (centres unmarked) [Example 32, 3-bromo-N-(3,3,3-trifluoro-1-hydroxymethyl-2-trifluoromethyl-propyl)-benzenesulfonamide]	19.8	25.3
Cc1cc(S(=O)(=O)NC(CO)C(C(F)(F)F)C(F)(F)F)ccc1F (centres unmarked) [Example 25, 4-Fluoro-3-methyl-N-(3,3,3-trifluoro-1-hydroxymethyl-2-trifluoromethyl-propyl)-benzenesulfonamide]	6.63	8.37
O=S(=O)(NC(CO)C(C(F)(F)F)C(F)(F)F)c1ccc(F)cc1F (centres unmarked) [Example 35, 2,4-difluoro-N-(3,3,3-trifluoro-1-hydroxymethyl-2-trifluoromethyl-propyl)-benzenesulfonamide]	9.77	11.2
C[C@H]([C@@H](CO)NS(=O)(=O)c1ccc(Cl)cc1)C(F)(F)F [Example 44, 4-Chloro-N-[(1S,2R)-3,3,3-trifluoro-1-(hydroxymethyl)-2-methylpropyl]benzenesulfonamide]	2.94	3.51
CCCc1ccc(S(=O)(=O)NC(CO)C(C(F)(F)F)C(F)(F)F)cc1 (centres unmarked) [Example 13, 4-propyl-N-[3,3,3-trifluoro-1-(hydroxymethyl)-2-(trifluoromethyl)propyl]benzenesulfonamide]	18	
O=S(=O)(NC(CO)C(C(F)(F)F)C(F)(F)F)c1ccc(OC(F)F)cc1 (centres unmarked) [Example 7, 4-(difluoromethoxy)-N-[3,3,3-trifluoro-1-(hydroxymethyl)-2-(trifluoromethyl)propyl]benzenesulfonamide]	4.46	4.02
O=S(=O)(NC(CO)C(C(F)(F)F)C(F)(F)F)c1ccc(C(F)(F)F)cc1 (centres unmarked) [Example 17, N-[3,3,3-trifluoro-1-(hydroxymethyl)-2-(trifluoromethyl)propyl]-4-(trifluoromethyl)benzenesulfonamide]	2.29	1.94
O=S(=O)(NC(CO)C(C(F)(F)F)C(F)(F)F)c1cccc(OC(F)F)c1 (centres unmarked) [Example 8, 3-(difluoromethoxy)-N-[3,3,3-trifluoro-1-(hydroxymethyl)2-(trifluoromethyl)propyl]benzenesulfonamide]	47.9	
O=S(=O)(NC(CO)C(C(F)(F)F)C(F)(F)F)c1cc(F)c(F)c(F)c1 (centres unmarked) [Example 42, 3,4,5-Trifluoro-N-(3,3,3-trifluoro-1-hydroxymethyl-2-trifluoromethyl-propyl)-benzene sulfonamide]	6.63	5.5
O=S(=O)(NC(CO)C(C(F)(F)F)C(F)(F)F)c1cc(F)cc(F)c1 (centres unmarked) [Example 22, 3,5-Difluoro-N-(3,3,3-trifluoro-1-hydroxymethyl-2-trifluoromethyl-propyl)-benzenesulfonamide]	5.72	6.34
C[C@@H]([C@@H](CO)NS(=O)(=O)c1ccc(Cl)c(Cl)c1)C(F)(F)F [Example 46, 3,4-Dichloro-N-[(1S,2S)-3,3,3-trifluoro-1-(hydroxymethyl)-2-methylpropyl]benzenesulfonamide]	5.07	4.84
C[C@@H]([C@@H](CO)NS(=O)(=O)c1ccc(C(F)(F)F)cc1)C(F)(F)F [Example 47, N-[(1S,2S)-3,3,3-Trifluoro-1-(hydroxymethyl)-2-methylpropyl]-4-(trifluoromethyl)benzenesulfonamide]	1.4	1.17
CCc1ccc(S(=O)(=O)NC(CO)C(C(F)(F)F)C(F)(F)F)cc1 (centres unmarked) [Example 9, 4-ethyl-N-[3,3,3-trifluoro-1-(hydroxymethyl)-2-(trifluoromethyl)propyl]benzenesulfonamide]	7.2	6.75
O=S(=O)(NC(CO)C(C(F)(F)F)C(F)(F)F)c1ccccc1Cl (centres unmarked) [Example 30, 2-chloro-N-(3,3,3-trifluoro-1-hydroxymethyl-2-trifluoromethyl-propyl)-benzenesulfonamide]	25.4	24.5

Structure (SMILES)	EC50 (beta amyloid 40) [µM]	EC50 (beta amyloid 42) [µM]
COc1ccc(S(=O)(=O)NC(CO)C(C(F)(F)F)C(F)(F)F)cc1 (centres unmarked) [Example 11, 4-methoxy-N-[3,3,3-trifluoro-1-(hydroxymethyl)-2-(trifluoromethyl)propyl]benzenesulfonamide]	6.81	6.44
CSc1cc(S(=O)(=O)NC(CO)C(C(F)(F)F)C(F)(F)F)ccc1Cl (centres unmarked) [Example 23, 4-Chloro-3-methylsulfanyl-N-(3,3,3-trifluoro-1-hydroxymethyl-2-trifluoromethyl-propyl)-benzenesulfonamide]	22.3	
O=[N+]([O-])c1ccc(S(=O)(=O)NC(CO)C(C(F)(F)F)C(F)(F)F)cc1 (centres unmarked) [Example 19, 4-nitro-N-(3,3,3-trifluoro-1-hydroxymethyl-2-trifluoromethyl-propyl)-benzenesulfonamide]	27.8	26.8
O=S(=O)(NC(CO)C(C(F)(F)F)C(F)(F)F)c1cccc(C(F)(F)F)c1 (centres unmarked) [Example 16, N-[3,3,3-trifluoro-1-(hydroxymethyl)-2-(trifluoromethyl)propyl]-3-(trifluoromethyl)benzenesulfonamide]	28.1	
O=S(=O)(N[C@H](CO)C(C(F)(F)F)C(F)(F)F)c1ccc(Cl)c(Cl)c1 [Example 41, (S)-3,4-Dichloro-N-[3,3,3-trifluoro-1-(hydroxymethyl)-2-(trifluoromethyl)propyl]benzene sulfonamide]	5.57	5.37
O=S(=O)(NC(CO)C(C(F)(F)F)C(F)(F)F)c1cccc(F)c1 (centres unmarked) [Example 27, 3-fluoro-N-(3,3,3-trifluoro-1-hydroxymethyl-2-trifluoromethyl-propyl)-benzenesulfonamide]	9.08	12.1
O=[N+]([O-])c1cc(S(=O)(=O)NC(CO)C(C(F)(F)F)C(F)(F)F)ccc1Cl (centres unmarked) [Example 5, 4-Chloro-3-nitro-N-(3,3,3-trifluoro-1-hydroxymethyl-2-trifluoromethyl-propyl)-benzenesulfonamide]	46	76.9
O=S(=O)(NC(CO)C(C(F)(F)F)C(F)(F)F)c1ccccc1F (centres unmarked) [Example 28, 2-fluoro-N-(3,3,3-trifluoro-1-hydroxymethyl-2-trifluoromethyl-propyl)-benzenesulfonamide]	23.4	44.2
O=S(=O)(NC(CO)C(C(F)(F)F)C(F)(F)F)c1ccc(Cl)cc1 (centres unmarked) [Example 21, 4-chloro-N-(3,3,3-trifluoro-1-hydroxymethyl-2-trifluoromethyl-propyl)-benzenesulfonamide]	0.997	0.932
O=S(=O)(NC(CO)C(C(F)(F)F)C(F)(F)F)c1ccc(Cl)c(C(F)(F)F)c1 (centres unmarked) [Example 4, 4-Chloro-N-(3,3,3-trifluoro-1-hydroxymethyl-2-trifluoromethyl-propyl)-3-trifluoromethyl-benzenesulfonamide]	37.7	89.9
O=S(=O)(NC(CO)C(C(F)(F)F)C(F)(F)F)c1ccc(F)cc1 (centres unmarked) [Example 26, 4-Fluoro-N-[3,3,3-trifluoro-1-(hydroxymethyl)-2-(trifluoromethyl)propyl]benzene sulfonamide]	1.13	1.21
Cc1cccc(S(=O)(=O)NC(CO)C(C(F)(F)F)C(F)(F)F)c1 (centres unmarked) [Example 15, 3-methyl-N-[3,3,3-trifluoro-1-(hydroxymethyl)-2-(trifluoromethyl)propyl]benzenesulfonamide]	15.1	14.5
O=S(=O)(NC(CO)C(C(F)(F)F)C(F)(F)F)c1ccc(F)c(F)c1F (centres unmarked) [Example 40, 2,3,4-trifluoro-N-(3,3,3-trifluoro-1-hydroxymethyl-2-trifluoromethyl-propyl)-benzenesulfonamide]	32.2	45.4
O=S(=O)(NC(CO)C(C(F)(F)F)C(F)(F)F)c1ccc(Cl)c(Cl)c1 (centres unmarked) [Example 38, 3,4-dichloro-N-(3,3,3-trifluoro-1-hydroxymethyl-2-trifluoromethyl-propyl)-benzenesulfonamide]	4.68	6.55
O=S(=O)(NC(CO)C(C(F)(F)F)C(F)(F)F)c1cc(Cl)cc(Cl)c1 (centres unmarked) [Example 36, 3,5-dichloro-N-(3,3,3-trifluoro-1-hydroxymethyl-2-trifluoromethyl-propyl)-benzenesulfonamide]	64	
